This note sets out measurements from US20100298270A1, “Novel Compounds and Methods of Using Them” (SYNDAX PHARMACEUTICALS, INC., priority 2007, published 2010).

Regarding `O=C(NCc1ccn(O)c(=O)c1)OCc1cccnc1` [Example 14, Pyridin-3-ylmethyl (1-hydroxy-2-oxo-1,2-dihydropyridin-4-yl)methylcarbamate], the melting point stood at 145 °C.

What is called melting point is the temperature, or range, at which the solid turns liquid.
